Reference: the NIST ThermoML archive (doi:10.1021/je9007553)
Where “and” joins values, the source holds several entries; their conditions need not be identical. Equal values may be shown once.

Conditions: Crystal, Calculated from knudsen effusion weight loss

[Br][Al]([Br])[Br] [aluminum bromide]
Conditions | vapor or sublimation pressure
301 K | 0.00013 kPa
303 K | 0.00018 kPa
306 K | 0.00024 kPa
307 K | 0.00035 kPa and 0.00034 kPa
309 K | 0.00043 kPa and 0.00035 kPa
310 K | 0.00045 kPa
312 K | 0.00049 kPa and 0.00056 kPa and 0.00046 kPa
312.5 K | 0.00054 kPa
314 K | 0.00062 kPa
314.5 K | 0.00071 kPa
315 K | 0.00072 kPa and 0.00068 kPa
315.5 K | 0.00085 kPa
316 K | 0.00071 kPa
316.5 K | 0.00089 kPa
317 K | 0.00095 kPa and 0.00083 kPa
317.5 K | 0.00089 kPa
318 K | 0.00089 kPa
318.5 K | 0.00107 kPa and 0.00102 kPa and 0.00112 kPa
320 K | 0.00107 kPa and 0.00123 kPa
320.5 K | 0.00123 kPa
321 K | 0.00135 kPa
321.5 K | 0.00141 kPa
323 K | 0.00166 kPa [middle of 4 runs]
324 K | 0.0017 kPa and 0.00178 kPa
324.5 K | 0.00191 kPa
325 K | 0.00209 kPa
326 K | 0.00204 kPa and 0.00214 kPa
327 K | 0.0024 kPa and 0.00282 kPa
327.5 K | 0.00234 kPa
328 K | 0.00269 kPa and 0.00251 kPa
330 K | 0.00363 kPa and 0.00324 kPa
330.5 K | 0.00309 kPa
331 K | 0.00389 kPa
332.5 K | 0.00468 kPa
333 K | 0.00457 kPa and 0.00398 kPa
333.5 K | 0.00437 kPa
335 K | 0.00575 kPa
336 K | 0.00575 kPa and 0.00617 kPa and 0.00562 kPa
337 K | 0.00724 kPa
338 K | 0.00741 kPa and 0.00794 kPa
340 K | 0.00933 kPa and 0.00813 kPa
343 K | 0.01259 kPa
344 K | 0.01288 kPa
345 K | 0.01479 kPa
348 K | 0.0195 kPa
351 K | 0.02512 kPa

[I][Al]([I])[I] [aluminum iodide]
Conditions | vapor or sublimation pressure
359.5 K | 7e-05 kPa
361 K | 0.0001 kPa
364 K | 0.00014 kPa
365 K | 0.00019 kPa and 0.00014 kPa
366.5 K | 0.00017 kPa
367.5 K | 0.00019 kPa
368 K | 0.00019 kPa and 0.00025 kPa
368.5 K | 0.00025 kPa
369.5 K | 0.00025 kPa
371.5 K | 0.00027 kPa
372 K | 0.0003 kPa and 0.00034 kPa
372.5 K | 0.00034 kPa
374.5 K | 0.00049 kPa and 0.00039 kPa and 0.00036 kPa
375.5 K | 0.00044 kPa
376 K | 0.00042 kPa and 0.00049 kPa
377 K | 0.00059 kPa and 0.00049 kPa
378 K | 0.00054 kPa
378.5 K | 0.00059 kPa and 0.00063 kPa
380 K | 0.00068 kPa and 0.00071 kPa
380.5 K | 0.00083 kPa and 0.00078 kPa
381 K | 0.00078 kPa
382 K | 0.00083 kPa
383 K | 0.00093 kPa
383.5 K | 0.00087 kPa
385 K | 0.00126 kPa and 0.00102 kPa
385.5 K | 0.00112 kPa
387 K | 0.00135 kPa
388 K | 0.00135 kPa
389 K | 0.00186 kPa
390 K | 0.0017 kPa and 0.00182 kPa and 0.00174 kPa
391 K | 0.0017 kPa and 0.00209 kPa
393 K | 0.00245 kPa
393.5 K | 0.00214 kPa and 0.00234 kPa
394 K | 0.00257 kPa
395 K | 0.00251 kPa and 0.00282 kPa
396.5 K | 0.00295 kPa
397 K | 0.00324 kPa
397.5 K | 0.00363 kPa
398 K | 0.00347 kPa and 0.00339 kPa
399 K | 0.0038 kPa
399.5 K | 0.00407 kPa and 0.00417 kPa
400 K | 0.00417 kPa
401 K | 0.00437 kPa
402 K | 0.00537 kPa and 0.00501 kPa
403 K | 0.00525 kPa
403.5 K | 0.00562 kPa and 0.0055 kPa
404.5 K | 0.00562 kPa
405 K | 0.00603 kPa and 0.00661 kPa
406 K | 0.00759 kPa
407 K | 0.00759 kPa
408 K | 0.00776 kPa and 0.00794 kPa
408.5 K | 0.00871 kPa
409 K | 0.00933 kPa
409.5 K | 0.00832 kPa
411 K | 0.01047 kPa and 0.01023 kPa
412 K | 0.01175 kPa and 0.01096 kPa
413 K | 0.01288 kPa and 0.01148 kPa
414.5 K | 0.01413 kPa
415 K | 0.01479 kPa and 0.01445 kPa
416 K | 0.01549 kPa and 0.01585 kPa
417 K | 0.0166 kPa
417.5 K | 0.0182 kPa
419.5 K | 0.02188 kPa
